Test systems include CHRF288-11; CMK; CMS; M07e; ML-2; MOLM-13; MV4-11; U937.
Holding throughout (set-up): species or system AML cell lines (8); Primary HTS, single concentration about 10 uM, Cell Titer Glo viability; log10 luminescence, per cent inhibition relative to cycloheximide control
Common to all, as to conditions: 72 h, relative to cycloheximide control, log10 luminescence, inhibitor

Like-named read-outs stand apart in the source and are kept apart here.

As for `O=C(N/N=C/c1coc2ccccc2c1=O)c1cccnc1` [SJ000773164-1, STAT5 INHIBITOR], the CHRF288-11 %inh in the experiment on CHRF288-11 is on record as 2.609%. For the same compound, the CMK %inh in the experiment with CMK was found to be 0.4302%. The CMS %inh in the experiment on CMS was -3.081%. Also, the M07e %inh in the experiment on M07e is reported as -2.508%. The ML-2 %inh with ML-2 is listed as 0.5689%. In addition, the MOLM-13 %inh in the experiment on MOLM-13 was found to be 0.6226%. Moreover, in the experiment with MV4-11, the MV4-11 %inh was 5.196%. Moreover, the U937 %inh in the experiment with U937 came out at 1.718%.

In the case of `CC1(C)CCC(C)(C)c2cc(C3(c4ccc5cc(C(=O)O)ccc5c4)SCCS3)ccc21` [SJ000573478-2, MM 11253], the CHRF288-11 %inh in the experiment with CHRF288-11 is -4.46%. The CMK %inh in the experiment with CMK is -3.669%. In the experiment with CMS, the CMS %inh came to 0.01284%. The M07e %inh with M07e is listed as 1.802%. For the same compound, the ML-2 %inh in the experiment with ML-2 worked out at 0.2271%. Moreover, the MOLM-13 %inh with MOLM-13 was found to be 2.534%. Further, the MV4-11 %inh in the experiment on MV4-11 is listed as 1.741%. In addition, in the experiment with U937, the U937 %inh came out at 1.985%.

Turning to `Cn1cc(C2=C(c3cn(C)c4ccc(Cl)cc34)C(=O)NC2=O)c2ccccc21` [SJ000581098-1], the CHRF288-11 %inh with CHRF288-11 is on record as 10.98%. In the experiment with CMK, the CMK %inh came to 47.95%. Also, in the experiment on CMS, the CMS %inh is given as 0.498%. Besides, the M07e %inh in the experiment on M07e stood at 13.21%. Besides, in the experiment on ML-2, the ML-2 %inh was 3.034%. In addition, in the experiment on MOLM-13, the MOLM-13 %inh stood at 13.33%. Also, the MV4-11 %inh with MV4-11 was determined as 5.255%. Besides, the U937 %inh with U937 is 4.952%.

In the case of `CCS(=O)(=O)c1ccc(OC)c(Nc2ncc(-c3cccc(OC)c3)o2)c1` [SJ000573358-1, U15747/93/1], the CHRF288-11 %inh in the experiment with CHRF288-11 was determined as 1.123%. Further, the CMK %inh with CMK worked out at 8.053%. For the same compound, in the experiment with CMS, the CMS %inh is -1.141%. Moreover, the M07e %inh with M07e was -2.224%. In the experiment on ML-2, the ML-2 %inh amounted to 1.703%. For the same compound, the MOLM-13 %inh with MOLM-13 turned out to be 73.64%. Further, the MV4-11 %inh in the experiment on MV4-11 stood at 70.44%. The U937 %inh with U937 was 5.914%.

Consider `Cc1ccc(C(=O)NC2CC2)cc1-c1ccc2[nH]ncc2c1` [SJ000573272-1, R8615/48/1], for which the CHRF288-11 %inh in the experiment on CHRF288-11 amounted to 1.821%. The CMK %inh with CMK worked out at 0.7696%. The CMS %inh in the experiment on CMS was determined as 0.2308%. In addition, the M07e %inh in the experiment with M07e worked out at 0.6909%. Also, the ML-2 %inh in the experiment on ML-2 is reported as 0.7274%. In addition, in the experiment on MOLM-13, the MOLM-13 %inh is -2.369%. The MV4-11 %inh with MV4-11 was 1.257%. Moreover, the U937 %inh in the experiment on U937 worked out at 1.222%.

Take `c1ccc(Nc2ncc(-c3ccccc3)o2)cc1` [SJ000573072-1, U13103/99/1]: the CHRF288-11 %inh with CHRF288-11 is reported as 2.769%. The CMK %inh in the experiment with CMK is reported as 6.254%. Besides, the CMS %inh with CMS was -0.2616%. Besides, the M07e %inh in the experiment on M07e is -2.471%. Besides, in the experiment with ML-2, the ML-2 %inh worked out at 3.842%. The MOLM-13 %inh in the experiment on MOLM-13 stood at 84.62%. Also, in the experiment on MV4-11, the MV4-11 %inh came to 59.12%. In the experiment with U937, the U937 %inh is 3.569%.

`CC(=O)N[C@@H](Cc1ccc(OP(=O)(O)O)cc1)C(=O)N[C@H]1CCC(=O)N2CCC[C@@H](C(=O)NCc3ccc(O)cc3)N2C1=O` [SJ000581139-1]: the CHRF288-11 %inh in the experiment on CHRF288-11 is -2.024%. Besides, the CMK %inh in the experiment with CMK was 0.1299%. For the same compound, the CMS %inh in the experiment on CMS stood at 2.649%. In the experiment on M07e, the M07e %inh worked out at 2.301%. For the same compound, the ML-2 %inh with ML-2 is -0.8925%. For the same compound, the MOLM-13 %inh in the experiment with MOLM-13 is given as 2.506%. The MV4-11 %inh in the experiment on MV4-11 amounted to 1.337%. Also, in the experiment with U937, the U937 %inh is -0.05209%.

`NC(=O)c1ccc(Oc2nccc(-c3c(-c4ccc(F)cc4)ncn3C3CCNCC3)n2)cc1` [SJ000573120-1, JB27193-061B1]: in the experiment with CHRF288-11, the CHRF288-11 %inh was determined as 0.2701%. In addition, the CMK %inh with CMK worked out at 7.904%. In the experiment with CMS, the CMS %inh was -1.264%. For the same compound, in the experiment with M07e, the M07e %inh is reported as -0.791%. The ML-2 %inh in the experiment with ML-2 amounted to 1.469%. Besides, the MOLM-13 %inh in the experiment on MOLM-13 is 6.408%. The MV4-11 %inh in the experiment with MV4-11 was 1.936%. Besides, the U937 %inh with U937 was determined as 4.71%.

In the case of `Cn1c(=O)c2c(ncn2C)n(C)c1=O` [SJ000285694-6, CAFFEINE], in the experiment with CHRF288-11, the CHRF288-11 %inh is recorded as -2.164%. In the experiment on CMK, the CMK %inh is -3.637%. The CMS %inh with CMS amounted to 0.8967%. Further, in the experiment on M07e, the M07e %inh was determined as 4.484%. Also, the ML-2 %inh in the experiment on ML-2 is 0.4974%. Moreover, in the experiment with MOLM-13, the MOLM-13 %inh is on record as -2.617%. In the experiment on MV4-11, the MV4-11 %inh is recorded as -1.738%. Further, the U937 %inh in the experiment on U937 was -2.594%.

Consider `Cn1cc(C2=C(c3cn(C)c4ccccc34)C(=O)NC2=O)c2ccccc21` [SJ000580978-1], for which, in the experiment on CHRF288-11, the CHRF288-11 %inh is on record as -0.8174%. Moreover, the CMK %inh with CMK came to 24.68%. In addition, the CMS %inh with CMS came out at 40.67%. Also, the M07e %inh with M07e is on record as 52.37%. In the experiment with ML-2, the ML-2 %inh stood at 13.32%. Besides, the MOLM-13 %inh in the experiment with MOLM-13 amounted to 3.271%. Moreover, the MV4-11 %inh with MV4-11 is 62.31%. The U937 %inh in the experiment with U937 is on record as 66.13%.

On to `CNC(=O)[C@@H](NC(=O)[C@H](CC(C)C)[C@H](O)C(=O)NO)C(C)(C)C` [SJ000772411-2], for which the CHRF288-11 %inh in the experiment on CHRF288-11 (CHRF288-11 %inh, 10 µM) is given as 28.21%. The CMK %inh in the experiment with CMK (CMK %inh, 10 µM) is 5.663%. Moreover, the CMS %inh with CMS (CMS %inh, 10 µM) worked out at 3.256%. In addition, in the experiment on M07e (M07e %inh, 10 µM), the M07e %inh came to 4.087%. Also, the ML-2 %inh with ML-2 (ML-2 %inh, 10 µM) came to 2.823%. Moreover, the MOLM-13 %inh in the experiment on MOLM-13 (MOLM-13 %inh, 10 µM) came out at 10.77%. Further, the MV4-11 %inh in the experiment on MV4-11 (MV4-11 %inh, 10 µM) amounted to 3.499%. Moreover, the U937 %inh in the experiment on U937 (U937 %inh, 10 µM) is listed as 3.1%.

Take `CC[C@H]1OC(=O)[C@H](C)[C@@H](O[C@H]2C[C@@](C)(OC)[C@@H](O)[C@H](C)O2)[C@H](C)[C@@H](O[C@@H]2O[C@H](C)C[C@H](N(C)C)[C@H]2O)[C@](C)(OC)C[C@@H](C)C(=O)[C@H](C)[C@@H](O)[C@]1(C)O` [SJ000286061-4, CLARITHROMYCIN]: the CHRF288-11 %inh with CHRF288-11 (CHRF288-11 %inh, 10 µM) is on record as 4.27%. For the same compound, the CMK %inh in the experiment with CMK (CMK %inh, 10 µM) is on record as -0.3654%. The CMS %inh with CMS (CMS %inh, 10 µM) was 4.035%. The M07e %inh in the experiment with M07e (M07e %inh, 10 µM) was determined as 4.017%. For the same compound, in the experiment with ML-2 (ML-2 %inh, 10 µM), the ML-2 %inh was -1.428%. The MOLM-13 %inh with MOLM-13 (MOLM-13 %inh, 10 µM) came to 0.6227%. Further, in the experiment on MV4-11 (MV4-11 %inh, 10 µM), the MV4-11 %inh is on record as 1.784%. In addition, in the experiment on U937 (U937 %inh, 10 µM), the U937 %inh worked out at 1.816%.

On to `CCOC(=O)C1=C(C)NC(C)=C(C(=O)OCC)C1c1ccccc1/C=C/C(=O)OC(C)(C)C` [SJ000541098-3, LACIDIPINE], for which the CHRF288-11 %inh in the experiment with CHRF288-11 (CHRF288-11 %inh, 10 µM) is -0.4968%. The CMK %inh with CMK (CMK %inh, 10 µM) is recorded as 6.472%. Further, the CMS %inh in the experiment with CMS (CMS %inh, 10 µM) was 2.32%. Also, in the experiment with M07e (M07e %inh, 10 µM), the M07e %inh turned out to be 5.059%. In the experiment with ML-2 (ML-2 %inh, 10 µM), the ML-2 %inh is reported as 5.833%. Moreover, the MOLM-13 %inh with MOLM-13 (MOLM-13 %inh, 10 µM) is given as 4.748%. The MV4-11 %inh with MV4-11 (MV4-11 %inh, 10 µM) is 8.929%. Further, the U937 %inh in the experiment on U937 (U937 %inh, 10 µM) worked out at 2.874%.

For the compound `CS(=O)(=O)CCNCc1ccc(-c2ccc3ncnc(Nc4ccc(OCc5ccccc5)cc4)c3c2)o1` [SJ000573093-1, R1325/200/3], in the experiment on CHRF288-11, the CHRF288-11 %inh was 1.417%. Moreover, the CMK %inh in the experiment on CMK amounted to 1.449%. In addition, the CMS %inh with CMS is given as 0.8735%. For the same compound, the M07e %inh in the experiment on M07e turned out to be 6.213%. Moreover, in the experiment on ML-2, the ML-2 %inh is given as 1.913%. Besides, in the experiment with MOLM-13, the MOLM-13 %inh was found to be 25.45%. For the same compound, the MV4-11 %inh in the experiment on MV4-11 worked out at 19.4%. For the same compound, in the experiment on U937, the U937 %inh is recorded as -1.059%.

`COC(=O)CCCC1=CC2=CC(=O)C(C)(OC(=O)c3cccs3)C(=O)C2=CN1C1CCCCC1` (centres unmarked) [SJ000579837-1]: the CHRF288-11 %inh with CHRF288-11 is 2.103%. Further, the CMK %inh in the experiment with CMK stood at 6.006%. Further, the CMS %inh with CMS is on record as -0.4009%. Further, the M07e %inh with M07e is listed as -0.3619%. The ML-2 %inh in the experiment on ML-2 was 1.343%. Besides, the MOLM-13 %inh with MOLM-13 is on record as 2.949%. Moreover, the MV4-11 %inh in the experiment with MV4-11 stood at 0.3457%. Further, the U937 %inh in the experiment on U937 is given as 1.516%.

Consider `COc1cc2ncn(-c3cc(OCc4cccs4)c(C(N)=O)s3)c2cc1OC` [SJ000573255-1, U21051/7/15], for which the CHRF288-11 %inh in the experiment on CHRF288-11 came to 6.199%. Also, the CMK %inh with CMK is -3.278%. Further, in the experiment on CMS, the CMS %inh is given as 9.159%. The M07e %inh in the experiment on M07e was found to be 12.77%. The ML-2 %inh in the experiment with ML-2 stood at 24.59%. In addition, the MOLM-13 %inh in the experiment with MOLM-13 was 63.69%. Further, the MV4-11 %inh with MV4-11 came out at 6.732%. Also, the U937 %inh in the experiment with U937 is 17.16%.

Source of the values: PMC6522510 (Nature Communications, 2019).
